The values below come from patent publication US7326732B2, “EP2 receptor agonists” (Pharmagene Laboratories Limited, priority 2004, dated 2008).

In one test the target is T1, human EP2 receptor (Homo sapiens, UniProt P43116).
T1 construct: expressed in transfected cells
The test is described as follows: Binding ability to human EP receptors ([3H]PGE2 displacement), EP2. Conditions: membranes expressing human EP2; [3H]PGE2 3 nM; Cheng-Prusoff; read-out: pKi (M) EP2 (converted). The procedure, abridged:
(§1)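 Membranes from cells stably expressing human EP2, EP3 or EP4 incubated to equilibrium with [3H]PGE2 and compound at 0.1 to 10 000 nM. Non-specific binding defined with 10 uM PGE2; bound label separated by vacuum filtration and quantified by scintillation counting.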

The next test addresses T2, human EP4 receptor (Homo sapiens, UniProt P35408).
T2 construct: expressed in transfected cells
The test is described as follows: Binding ability to human EP receptors ([3H]PGE2 displacement), EP4. The note with it: membranes expressing human EP4; [3H]PGE2 1 nM; Cheng-Prusoff; read-out: pKi (M) EP4 (converted). The procedure, abridged:
as §1

For the next test, the target named is T3, human EP3 receptor (Homo sapiens, UniProt P43115).
T3 construct: expressed in transfected cells
T3 sequence (P43115 1-390): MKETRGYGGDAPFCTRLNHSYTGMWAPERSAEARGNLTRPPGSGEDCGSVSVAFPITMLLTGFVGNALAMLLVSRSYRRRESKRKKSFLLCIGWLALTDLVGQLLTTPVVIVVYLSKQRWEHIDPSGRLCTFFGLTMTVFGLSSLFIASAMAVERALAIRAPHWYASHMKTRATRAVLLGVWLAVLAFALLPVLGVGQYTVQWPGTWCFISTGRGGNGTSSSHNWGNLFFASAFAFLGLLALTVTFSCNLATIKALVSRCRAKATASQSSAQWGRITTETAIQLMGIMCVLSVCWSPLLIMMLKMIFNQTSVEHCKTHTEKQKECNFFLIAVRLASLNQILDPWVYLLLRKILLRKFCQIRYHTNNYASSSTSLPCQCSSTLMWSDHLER
The experiment in a line: Binding ability to human EP receptors ([3H]PGE2 displacement), EP3. Conditions: membranes expressing human EP3; [3H]PGE2 2.5 nM; Cheng-Prusoff; read-out: pKi (M) EP3 (converted). The procedure, abridged: as §1

Test [1] has as its target T4, human EP2 prostanoid receptors (Homo sapiens, UniProt P43116).
T4 construct: expressed in transfected cells; host or cells: HEK-293
The test is described as follows: Agonist activity at recombinant human EP2 prostanoid receptors (cAMP in HEK-293 clones). It counts as cell-based. The note with it: for EC50: HEK-293 stably transfected with human EP2, cAMP accumulation, read-out: pEC50 EP2 (converted); for activity (EP2 part): functional classification at EP2. For orientation: Changes in cAMP serve as a functional read-out for many G protein-coupled receptors.

Test [2] has as its target T5, human EP4 prostanoid receptors (Homo sapiens, UniProt P35408).
T5 construct: expressed in transfected cells; host or cells: HEK-293
The test is described as follows: Antagonist activity at EP4 prostanoid receptors (PGE2-stimulated cAMP in HEK-293 clones). The test is classed as cell-based. The note with it: for Kb: HEK-293 stably transfected with human EP4, 30 min pre-incubation before PGE2, Gaddum-Schild, slope of unity, read-out: pA2 EP4 (converted); for activity (EP4 part): functional classification at EP4, second line of the activity cell. As to the method: Culture media was Minimal essential media (MEM), supplemented with 10% foetal bovine serum, 100 U/ml penicillin, […] streptomycin, 2.5 μg/ml fungizone, 2mM glutamine. Cells were cultured to confluency (3-4 days) prior to use. Culture media was removed, and confluent cells washed three times in MEM. […] Cells were then stimulated by the addition of 25 μl of PGE2 or agonists prepared in assay buffer. In antagonist studies, cells were pre-incubated with compounds for 30 minutes prior to PGE2-mediated stimulation Plates were incubated for 15 min at 37° C., before termination of the reaction by the addition of 25 μl 1M HCl. The plate was then frozen at -20° C. overnight before determination of cAMP concentration. Stimulated cAMP levels were determined by radioligand displacement binding. In brief, plates were thawed rapidly in a waterbath, and the samples neutralised by the addition of 25 μl 1M NaOH. 30 μl was transferred to Millipore plates pre-coated with 0.5% Polyethylenimine (PEI). Samples were diluted by addition of 90 μl cAMP determination buffer (50 mM Tris, 5 mM EDTA, pH 7.0). […] 15 μl of 2 nM (final concentration) [^3H] cAMP, and 15 μl of 3'5'-cAMP protein kinase (8 μg/well final concentration) prepared in cAMP determination buffer containing 0.1% BSA, were added to each well. Plates were incubated on ice for 2 hours, before bound and free radiolabel were separated by vacuum filtration harvesting using the Millipore vacuum manifold, using ice cold water as the termination buffer. The sealing mat was removed from the Millipore plates, and the filters allowed to dry overnight. 50 μl Microscint 0 (Packard Bioscience) was added to each well, and the plate counted using the Micro-Beta Trilux topcount ^3H program. cAMP accumulation was determined from the standard curve, and values calculated in pmoles cAMP/well. Antagonists affinities (pA2 values) were determined assuming a slope of unity and the […]-Schild equation, where pA2=log [concentration ratio-1]-log[antagonist].

T5 sequence (P35408 whole entry): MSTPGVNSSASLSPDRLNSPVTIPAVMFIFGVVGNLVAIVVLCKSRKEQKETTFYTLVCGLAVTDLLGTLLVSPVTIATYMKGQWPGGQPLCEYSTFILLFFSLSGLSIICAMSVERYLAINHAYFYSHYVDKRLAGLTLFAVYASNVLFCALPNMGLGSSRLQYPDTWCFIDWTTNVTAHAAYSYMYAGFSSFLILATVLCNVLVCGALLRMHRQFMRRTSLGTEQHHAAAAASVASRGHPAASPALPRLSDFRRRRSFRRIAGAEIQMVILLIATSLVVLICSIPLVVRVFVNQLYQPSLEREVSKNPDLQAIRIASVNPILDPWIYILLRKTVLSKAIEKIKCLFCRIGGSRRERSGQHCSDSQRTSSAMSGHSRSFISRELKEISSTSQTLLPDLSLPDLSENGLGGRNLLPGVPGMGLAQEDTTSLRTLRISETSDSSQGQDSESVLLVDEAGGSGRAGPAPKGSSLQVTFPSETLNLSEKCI
T2 sequence (P35408 whole entry): as above
T1 sequence (P43116 whole entry): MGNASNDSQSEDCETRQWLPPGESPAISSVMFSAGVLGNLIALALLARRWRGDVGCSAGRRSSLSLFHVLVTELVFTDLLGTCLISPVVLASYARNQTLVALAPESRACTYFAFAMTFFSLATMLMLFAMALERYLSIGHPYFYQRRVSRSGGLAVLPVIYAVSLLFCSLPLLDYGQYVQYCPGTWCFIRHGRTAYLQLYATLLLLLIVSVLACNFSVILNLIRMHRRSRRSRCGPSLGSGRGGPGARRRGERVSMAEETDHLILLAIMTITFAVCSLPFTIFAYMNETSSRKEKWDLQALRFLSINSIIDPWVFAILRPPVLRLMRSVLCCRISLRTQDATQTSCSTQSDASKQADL
T4 sequence (P43116 whole entry): as above

Take `O=C(O)Cc1cccc(NC(=O)c2ccc(-c3cc(Cl)cc(Cl)c3)o2)c1` [Compound 26, (3-{[5-(3,5-Dichloro-phenyl)-furan-2-carbonyl]-amino}-phenyl)-acetic acid]: the Ki on human EP2 receptor is under 1e-07 M. For the same compound, the Ki at human EP4 receptor is under 1e-07 M. For the same compound, the Ki on human EP3 receptor is over 1e-05 M. In test [1], the EC50 was under 100 nM and the “activity (EP2 part)” value is listed as “EP2 agonist/”. Also, in test [2], the Kb was under 1000 nM and the “activity (EP4 part)” value is on record as “EP4 antagonist”.

For the compound `O=C(O)/C=C/c1cccc(NC(=O)c2ccc(-c3ccccc3)o2)c1` [Compound 61, 3-{3-[(5-Phenyl-furan-2-carbonyl)-amino]-phenyl}-acrylic acid], the Ki at human EP2 receptor is under 1e-07 M. The Ki at human EP4 receptor is under 1e-06 M. Further, the Ki at human EP3 receptor was over 1e-05 M. Further, in test [1], the EC50 is under 100 nM and the “activity (EP2 part)” value is listed as “EP2 agonist/”. In test [2], the Kb was under 1000 nM and the “activity (EP4 part)” value is recorded as “EP4 agonist”.

In the case of `O=C(O)COc1cccc(NC(=O)c2ccc(-c3cccc(Cl)c3)o2)c1` [Compound 66, (3-{[5-(3-Chloro-phenyl)-furan-2-carbonyl]-amino}-phenoxy)-acetic acid], the Ki on human EP2 receptor was under 1e-07 M; on human EP4 receptor, under 1e-06 M; at human EP3 receptor it was over 1e-05 M. Moreover, the EC50 in test [1] is under 100 nM. Also, in test [1], the “activity (EP2 part)” value is given as “EP2 agonist/”. Further, in test [2], the Kb is under 1000 nM. Besides, in test [2], the “activity (EP4 part)” value was “EP4 agonist”.

`O=C(O)COc1cccc(NC(=O)c2ccc(-c3cc(Cl)cc(Cl)c3)o2)c1` [Compound 68, (3-{[5-(3,5-Dichloro-phenyl)-furan-2-carbonyl]-amino}-phenoxy)-acetic acid]: the Ki on human EP2 receptor was under 1e-07 M. Also, the Ki at human EP4 receptor was under 1e-06 M. Besides, on human EP3 receptor, the Ki is over 1e-05 M. In test [1], the EC50 was under 100 nM and the “activity (EP2 part)” value was “EP2 agonist/”. Moreover, in test [2], the Kb is under 1000 nM and the “activity (EP4 part)” value is recorded as “EP4 antagonist”.

Consider `O=C(O)/C=C/c1cccc(NC(=O)c2ccc(-c3cccc(Cl)c3)o2)c1` [Compound 69, 3-(3-{[5-(3-Chloro-phenyl)-furan-2-carbonyl]-amino}-phenyl)-acrylic acid], for which the Ki is under 1e-07 M at human EP2 receptor, under 1e-06 M on human EP4 receptor and over 1e-05 M at human EP3 receptor. In test [1], the “activity (EP2 part)” value is “EP2 agonist/”. Besides, the “activity (EP4 part)” value in test [2] is recorded as “EP4 antagonist”.

As for `O=C(O)/C=C/c1cccc(NC(=O)c2ccc(-c3cc(Cl)cc(Cl)c3)o2)c1` [Compound 70, 3-(3-{[5-(3,5-Dichloro-phenyl)-furan-2-carbonyl]-amino}-phenyl)-acrylic acid], the Ki at human EP2 receptor was under 1e-07 M; on human EP4 receptor, under 1e-06 M; on human EP3 receptor, over 1e-05 M. For the same compound, in test [1], the “activity (EP2 part)” value is “EP2 agonist/”. For the same compound, the “activity (EP4 part)” value in test [2] is given as “EP4 antagonist”.

Regarding `O=C(O)c1cc2cc(NC(=O)c3ccc(-c4cccc(Cl)c4)o3)ccc2[nH]1` [Compound 72, 5-{[5-(3-Chloro-phenyl)-furan-2-carbonyl]-amino}-1H-indole-2-carboxylic acid], on human EP2 receptor, the Ki is under 1e-06 M. For the same compound, the Ki at human EP4 receptor was under 1e-05 M. The Ki on human EP3 receptor was over 1e-05 M. In addition, in test [1], the EC50 was under 1000 nM and the “activity (EP2 part)” value was “EP2 agonist/”. Besides, in test [2], the Kb is under 1000 nM and the “activity (EP4 part)” value is “EP4 antagonist”.

Regarding `O=C(O)CCc1cccc(NC(=O)c2ccc(-c3cccc(Cl)c3)o2)c1` [Compound 125, 3-(3-{[5-(3-Chloro-phenyl)-furan-2-carbonyl]-amino}-phenyl)-propionic acid], the Ki at human EP2 receptor was under 1e-07 M. Further, the Ki at human EP4 receptor is under 1e-05 M. Moreover, the Ki on human EP3 receptor was over 1e-05 M. Further, in test [1], the EC50 is under 100 nM and the “activity (EP2 part)” value is recorded as “EP2 Agonist/”. In addition, in test [2], the Kb is under 10000 nM and the “activity (EP4 part)” value is listed as “EP4 Antagonist”.

Take `O=C(O)CCc1cccc(NC(=O)c2ccc(-c3cc(Cl)cc(Cl)c3)o2)c1` [Compound 126, 3-(3-{[5-(3,5-Dichloro-phenyl)-furan-2-carbonyl]-amino}-phenyl)-propionic acid]: the Ki at human EP2 receptor is under 1e-07 M. Also, the Ki on human EP4 receptor was under 1e-06 M. Besides, the Ki on human EP3 receptor was over 1e-05 M. Moreover, in test [1], the EC50 was under 100 nM and the “activity (EP2 part)” value is listed as “EP2 Agonist/”. In addition, in test [2], the Kb is under 1000 nM and the “activity (EP4 part)” value is recorded as “EP4 Antagonist”.

With `O=C(O)Cc1cccc(NC(=O)c2cccc(-c3cccc(Cl)c3)n2)c1` [Compound 129, (3-{[6-(3-Chloro-phenyl)-pyridine-2-carbonyl]-amino}-phenyl)-acetic acid], the Ki on human EP2 receptor is under 1e-07 M. The Ki at human EP4 receptor is under 1e-06 M. Moreover, the Ki at human EP3 receptor was over 1e-05 M. Also, in test [1], the EC50 is under 100 nM and the “activity (EP2 part)” value is on record as “EP2 Agonist/”. Moreover, in test [2], the Kb is under 1000 nM and the “activity (EP4 part)” value was “EP4 Antagonist”.

Regarding `O=C(O)Cc1cccc(NC(=O)c2cccc(-c3cc(Cl)cc(Cl)c3)n2)c1` [Compound 130, (3-{[6-(3,5-Dichloro-phenyl)-pyridine-2-carbonyl]-amino}-phenyl)-acetic acid], the Ki on human EP2 receptor was under 1e-07 M. Further, the Ki on human EP4 receptor was under 1e-06 M. Besides, the Ki at human EP3 receptor is over 1e-05 M. In test [1], the EC50 is under 100 nM and the “activity (EP2 part)” value is recorded as “EP2 Agonist/”. Also, in test [2], the Kb is under 1000 nM and the “activity (EP4 part)” value is “EP4 Antagonist”.

Turning to `O=C(O)COc1cccc(NC(=O)c2cccc(-c3cc(Cl)cc(Cl)c3)n2)c1` [Compound 133, (3-{[6-(3,5-Dichloro-phenyl)-pyridine-2-carbonyl]-amino}-phenoxy)-acetic acid], the Ki on human EP2 receptor is under 1e-07 M. At human EP4 receptor, the Ki is under 1e-06 M. Besides, the Ki on human EP3 receptor is over 1e-05 M. Moreover, in test [1], the EC50 is under 100 nM and the “activity (EP2 part)” value was “EP2 Agonist/”. Moreover, in test [2], the Kb is under 100 nM and the “activity (EP4 part)” value was “EP4 Agonist”.

In the case of `O=C(O)COc1cccc(NC(=O)c2cccc(-c3cccc(Cl)c3)n2)c1` [Compound 138, (3-{[6-(3-Chloro-phenyl)-pyridine-2-carbonyl]-amino}-phenoxy)-acetic acid], the Ki on human EP2 receptor is under 1e-07 M. For the same compound, at human EP4 receptor, the Ki is under 1e-07 M. In addition, the Ki at human EP3 receptor is over 1e-05 M. Moreover, in test [1], the EC50 was under 100 nM and the “activity (EP2 part)” value is “EP2 Agonist/”. In test [2], the Kb is under 1000 nM and the “activity (EP4 part)” value is recorded as “EP4 Agonist”.

On to `O=C(O)/C=C/c1cccc(NC(=O)c2cc(-c3cc(Cl)cc(Cl)c3)ccc2F)c1` [Compound 144, 3-{3-[(3′,5′-Dichloro-4-fluoro-biphenyl-3-carbonyl)-amino]-phenyl}-acrylic acid], for which the Ki at human EP2 receptor is under 1e-07 M; on human EP4 receptor it was under 1e-06 M; on human EP3 receptor it was over 1e-05 M. In addition, the EC50 in test [1] was under 100 nM. For the same compound, in test [1], the “activity (EP2 part)” value was “EP2 Agonist”. Moreover, the Kb in test [2] is under 1000 nM.

For the compound `O=C(O)/C=C/c1cccc(NC(=O)c2cccc(-c3ccccc3)n2)c1` [Compound 178, 3-{3-[(6-Phenyl-pyridine-2-carbonyl)-amino]-phenyl}-acrylic acid], the results for the Ki on human EP2 receptor, on human EP4 receptor and on human EP3 receptor were under 1e-07 M, under 1e-07 M and over 1e-05 M, respectively. In addition, the EC50 in test [1] is under 100 nM. In addition, the “activity (EP2 part)” value in test [1] is recorded as “EP2 Agonist/”. Also, the Kb in test [2] is under 1000 nM. In addition, the “activity (EP4 part)” value in test [2] is listed as “EP4 Agonist”.
